Measured values from ChEMBL document CHEMBL5370533 (Eur J Med Chem, 2023).
Active and inactive are the calls of the source. No cut-off for these calls is given here.

Legend:
[1] = molecular target: T1, Receptor-type tyrosine-protein kinase FLT3 (Homo sapiens, UniProt P36888); experiment: Inhibition of human FLT3 using EAIYAAPFAKKK and [gamma-33P]-ATP as substrate pretreated for 20 mins followed by [gamma-33P]-ATP addition and measured after 120 mins in presence of 10 uM ATP by radiometric Hot-SpotSM Kinase assay
T1 sequence (P36888 whole entry): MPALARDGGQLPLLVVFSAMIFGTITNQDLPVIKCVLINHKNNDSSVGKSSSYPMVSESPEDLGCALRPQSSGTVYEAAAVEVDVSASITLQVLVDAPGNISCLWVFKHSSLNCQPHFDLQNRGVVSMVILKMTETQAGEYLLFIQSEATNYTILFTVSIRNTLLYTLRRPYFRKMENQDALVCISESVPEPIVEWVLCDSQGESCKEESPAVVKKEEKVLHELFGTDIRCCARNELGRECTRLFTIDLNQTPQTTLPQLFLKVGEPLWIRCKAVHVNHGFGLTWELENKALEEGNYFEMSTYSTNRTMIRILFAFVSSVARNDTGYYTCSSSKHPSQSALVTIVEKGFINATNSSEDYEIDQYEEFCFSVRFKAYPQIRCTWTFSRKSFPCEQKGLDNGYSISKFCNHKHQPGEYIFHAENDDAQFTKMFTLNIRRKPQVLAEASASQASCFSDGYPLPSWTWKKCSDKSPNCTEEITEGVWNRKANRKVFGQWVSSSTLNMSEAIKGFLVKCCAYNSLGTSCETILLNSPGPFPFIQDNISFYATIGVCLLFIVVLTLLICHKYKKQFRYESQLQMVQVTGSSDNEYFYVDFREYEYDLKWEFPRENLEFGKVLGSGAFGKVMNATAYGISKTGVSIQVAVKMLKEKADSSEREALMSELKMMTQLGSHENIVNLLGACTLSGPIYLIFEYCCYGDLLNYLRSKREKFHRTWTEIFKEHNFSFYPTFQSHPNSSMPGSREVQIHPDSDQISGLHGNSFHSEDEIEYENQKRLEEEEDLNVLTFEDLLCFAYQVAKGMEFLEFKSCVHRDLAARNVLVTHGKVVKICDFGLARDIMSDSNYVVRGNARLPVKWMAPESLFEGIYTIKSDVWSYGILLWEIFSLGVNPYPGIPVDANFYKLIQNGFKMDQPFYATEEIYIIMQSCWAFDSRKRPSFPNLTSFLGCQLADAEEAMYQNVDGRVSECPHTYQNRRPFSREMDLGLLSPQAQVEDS

[2] = molecular target: Cyclin-dependent kinase 2 (Homo sapiens, UniProt P24941); experiment: Inhibition of human CDK2 pretreated for 20 mins followed by [gamma-33P]-ATP addition and measured after 120 mins in presence of 10 uM ATP by radiometric Hot-SpotSM Kinase assay
[3] = molecular target: T1, Receptor-type tyrosine-protein kinase FLT3; experiment: Binding affinity to FLT3 (unknown origin)
[4] = Cytotoxicity against human PBMC cells assessed as inhibition of cell growth; format: toxicity, cell-based
[5] = molecular target: CDK4/Cyclin D3 (Homo sapiens) (UniProt P11802+P30281); experiment: Inhibition of CDK4/Cyclin D3 (unknown origin); format: protein-complex assay; conditions: concentration not given here
[6] = molecular target: CDK7/Cyclin H/MNAT1 (Homo sapiens) (UniProt P51946+P50613+P51948); experiment: Inhibition of CDK7/Cyclin H/MAT1 (unknown origin); format: protein-complex assay; conditions: concentration not given here
[7] = molecular target: Mast/stem cell growth factor receptor Kit (Homo sapiens) (UniProt P10721); experiment: Inhibition of c-Kit (unknown origin)
SW-620 = experiment: Antiproliferative activity against human SW-620 cells assessed as inhibition of cell growth; format: functional
MOLM-13 = experiment: Antiproliferative activity against human MOLM-13 cells harboring FLT3 ITD mutant assessed as inhibition of cell growth; format: functional, cell-based
[8] = molecular target: Receptor-type tyrosine-protein kinase FLT3 (Homo sapiens, UniProt P36888, D835V); experiment: Binding affinity to FLT3 D835V mutant (unknown origin)
[9] = molecular target: Receptor-type tyrosine-protein kinase FLT3 (Homo sapiens, UniProt P36888, D835V/ITD); experiment: Binding affinity to FLT3 ITD/D835V mutant (unknown origin)
[10] = molecular target: Receptor-type tyrosine-protein kinase FLT3 (Homo sapiens, UniProt P36888, F691L/ITD); experiment: Binding affinity to FLT3 ITD/F691L mutant (unknown origin)
[11] = molecular target: Receptor-type tyrosine-protein kinase FLT3 (Homo sapiens, UniProt P36888, K663Q); experiment: Binding affinity to FLT3 K663Q mutant (unknown origin)
[12] = molecular target: Receptor-type tyrosine-protein kinase FLT3 (Homo sapiens, UniProt P36888, N841I); experiment: Binding affinity to FLT3 N841I mutant (unknown origin)
[13] = molecular target: Receptor-type tyrosine-protein kinase FLT3 (Homo sapiens, UniProt P36888, R834Q); experiment: Binding affinity to FLT3 R834Q mutant (unknown origin)
[14] = molecular target: T1, Receptor-type tyrosine-protein kinase FLT3; experiment: Binding affinity to autoinhibited FLT3 (unknown origin)
[15] = Cytotoxicity against mouse BaF3 cells assessed as inhibition of cell growth incubated for 72 hrs; format: toxicity, cell-based
BaF3 [16] = experiment: cells; format: functional, cell-based; conditions: Mus musculus, BaF3, 72 h
Description: Antiproliferative activity against mouse BaF3 cells harboring FLT3 ITD mutant assessed as inhibition of cell growth incubated for 72 hrs

BaF3 [17] = experiment: cells; format: functional, cell-based; conditions: Mus musculus, BaF3, 72 h; remark: listed apart in the source
Description: Antiproliferative activity against mouse BaF3 cells harboring FLT3 ITD/D835V mutant assessed as inhibition of cell growth incubated for 72 hrs

BaF3 [18] = experiment: cells; format: functional, cell-based; conditions: Mus musculus, BaF3, 72 h; remark: listed apart in the source
Description: Antiproliferative activity against mouse BaF3 cells harboring FLT3 ITD/N676D mutant assessed as inhibition of cell growth incubated for 72 hrs

[19] = Half life in human liver microsomes by LC-MS/MS analysis; format: ADME, Microsome
[20] = AUC(0 to t) in rat at 10 mg/kg, po; format: ADME, organism-based; set-up: dose 10 mg/kg, route po; conditions: in vivo
[21] = Oral bioavailability in rat at 10 mg/kg; format: ADME, organism-based; conditions: in vivo
[22] = Cmax in Beagle dog at […], po; format: ADME, organism-based, Canis lupus familiaris; set-up: dose 1.5 mg/kg, route po; conditions: in vivo
[23] = AUC (0 to t) in Beagle dog at […], po; format: ADME, organism-based, Canis lupus familiaris; set-up: dose 1.5 mg/kg, route po; conditions: in vivo
[24] = Oral bioavailability in Beagle dog at […]; format: ADME, organism-based, Canis lupus familiaris; conditions: in vivo, dose 1.5 mg/kg
MV4-11 [25] = experiment: Antitumor activity against human MV4-11 cells xenografted in nu/nu mouse assessed as inhibition of tumor growth at 25 mg/kg, po qd for 2 weeks by vernier caliper analysis; format: functional; conditions: MV4-11, 336 h
MV4-11 [26] = experiment: animal or person; format: functional, Homo sapiens; conditions: Mus musculus, MV4-11, 336 h, route po, time 2 weeks
Description: Antitumor activity against human MV4-11 cells xenografted in nu/nu mouse assessed as inhibition of tumor growth at 50 mg/kg, po qd for 2 weeks by vernier caliper analysis

[27] = Toxicity against nu/nu mouse xenografted with human MV4-11 cells assessed as decrease in body weight at 25 mg/kg, po qd for 2 weeks; format: organism-based; conditions: in vivo, 336 h
[28] = molecular target: Receptor-type tyrosine-protein kinase FLT3 (Homo sapiens) (UniProt P36888); experiment: Inhibition of FLT3 in human MV4-11 cells assessed as decrease in phosphorylated FLT3 level incubated for 24 hrs by immunoblot analysis; format: cell-based; conditions: dose 20-600 nM
[29] = molecular target: Receptor-type tyrosine-protein kinase FLT3 (Homo sapiens) (UniProt P36888); experiment: Inhibition of FLT3 in human MV4-11 cells assessed as decrease in phosphorylated STAT5 level incubated for 24 hrs by immunoblot analysis; format: cell-based; conditions: dose 20-600 nM
[30] = molecular target: Receptor-type tyrosine-protein kinase FLT3 (Homo sapiens) (UniProt P36888); experiment: Inhibition of FLT3 in human MV4-11 cells assessed as decrease in phosphorylated ERK level incubated for 24 hrs by immunoblot analysis; format: cell-based; conditions: dose 20-600 nM

Chain of Mast/stem cell growth factor receptor Kit (Homo sapiens) (P10721 whole entry): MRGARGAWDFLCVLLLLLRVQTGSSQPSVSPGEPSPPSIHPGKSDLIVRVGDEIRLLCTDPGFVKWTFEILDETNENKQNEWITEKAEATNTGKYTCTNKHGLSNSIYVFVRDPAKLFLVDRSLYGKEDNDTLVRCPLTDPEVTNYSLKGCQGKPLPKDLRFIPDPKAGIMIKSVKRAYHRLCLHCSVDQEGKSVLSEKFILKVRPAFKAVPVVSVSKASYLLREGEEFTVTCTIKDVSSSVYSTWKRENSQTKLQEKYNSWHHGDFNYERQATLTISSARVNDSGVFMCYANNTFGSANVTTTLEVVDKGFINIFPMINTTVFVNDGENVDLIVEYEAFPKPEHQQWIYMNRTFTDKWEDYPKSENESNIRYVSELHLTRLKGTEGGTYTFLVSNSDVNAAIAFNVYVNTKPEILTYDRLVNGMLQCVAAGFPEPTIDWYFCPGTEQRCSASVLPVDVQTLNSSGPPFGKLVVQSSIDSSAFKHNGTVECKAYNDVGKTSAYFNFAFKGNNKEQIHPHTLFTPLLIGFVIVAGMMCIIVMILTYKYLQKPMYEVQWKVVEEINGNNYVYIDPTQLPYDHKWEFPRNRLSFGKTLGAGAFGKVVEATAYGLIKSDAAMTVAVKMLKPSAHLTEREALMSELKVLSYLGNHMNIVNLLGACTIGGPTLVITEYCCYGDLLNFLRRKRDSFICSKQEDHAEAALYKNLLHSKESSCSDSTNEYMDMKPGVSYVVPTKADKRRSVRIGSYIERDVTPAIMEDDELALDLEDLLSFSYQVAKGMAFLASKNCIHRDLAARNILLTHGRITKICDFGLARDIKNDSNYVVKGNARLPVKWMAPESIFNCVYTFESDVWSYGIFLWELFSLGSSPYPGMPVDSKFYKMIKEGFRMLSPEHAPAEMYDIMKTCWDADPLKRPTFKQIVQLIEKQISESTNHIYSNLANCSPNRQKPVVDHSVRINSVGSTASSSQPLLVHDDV

Compound `O=C(Nc1ccc(N2CCNCC2)cc1)c1n[nH]cc1Nc1cc(Oc2ccccc2)ncn1` has an IC50 [1] of 0.62 nM, an IC50 [2] of 98.3 nM and a Kd [3] of 22.1 nM. The IC50 [4] was 831 nM, the inhibition [5] was 79.2% and the inhibition [6] was 80.9%. For the same compound, the inhibition [7] was “Active”, the GI50 (SW-620) was < 1000 nM and the IC50 (MOLM-13) was 16.3 nM. It also gave a Kd [8] of 1.54 nM, a Kd [9] of 0.58 nM and a Kd [10] of 1.61 nM. For the same compound, the Kd [11] was 121 nM, the Kd [12] was 77.2 nM and the Kd [13] was 66.5 nM. It also gave a Kd [14] of 121 nM, an IC50 at 72 h [15] of 2920 nM and an IC50 (BaF3 [16]) of 39 nM. The IC50 (BaF3 [17]) was 9 nM, the IC50 (BaF3 [18]) was 54 nM and the half-life [19] was 186 min. For the same compound, the AUC(0-t) [20] was 1080 ng·h/mL, the bioavailability [21] was 33.3% and the Cmax [22] was 52.1 ng/mL. For the same compound, the AUC(0-t) [23] was 762 ng·h/mL, the bioavailability [24] was 72.7% and the inhibition in vivo at 25 mg/kg (MV4-11 [25]) was 94.2%. The inhibition in vivo at 50 mg/kg (MV4-11 [26]) was 94%, the Activity [27] was “Non-Toxic” and the inhibition [28] was “Dose-Dependent Effect”. The inhibition [29] was “Dose-Dependent Effect” and the inhibition [30] was “Dose-Dependent Effect”.
